From US20070060605A1, “Compositions and methods for inhibiting platelet activation and thrombosis” (priority 2001, published 2007)

What was measured:
human platelet PDE5 = target: T1, human platelet PDE5 (Homo sapiens, UniProt O76074); assay: Phosphodiesterase inhibition, PDE5; assay type: biochemical; conditions: up to 1 μM
T1 construct: human platelet PDE5; from tissue; host or cells: human platelets
Method: (§1) Intracellular cAMP generated by adenylyl cyclase in platelets is actively hydrolyzed by phosphodiesterase. […] Human platelets express PDE2, PDE3, and PDE5. Therefore, the compound was tested for its inhibitory effect on these phosphodiesterases using methods as described in Example 3.

recombinant human PDE2 = recombinant human PDE2 (Homo sapiens, UniProt O00408); assay: Phosphodiesterase inhibition, PDE2; assay type: biochemical; conditions: up to 1 μM
Method: as §1

[1] = listed as Pyridazinone compound
[2] = listed as pyridazinone compound

Sequence of recombinant human PDE2 (O00408 whole entry): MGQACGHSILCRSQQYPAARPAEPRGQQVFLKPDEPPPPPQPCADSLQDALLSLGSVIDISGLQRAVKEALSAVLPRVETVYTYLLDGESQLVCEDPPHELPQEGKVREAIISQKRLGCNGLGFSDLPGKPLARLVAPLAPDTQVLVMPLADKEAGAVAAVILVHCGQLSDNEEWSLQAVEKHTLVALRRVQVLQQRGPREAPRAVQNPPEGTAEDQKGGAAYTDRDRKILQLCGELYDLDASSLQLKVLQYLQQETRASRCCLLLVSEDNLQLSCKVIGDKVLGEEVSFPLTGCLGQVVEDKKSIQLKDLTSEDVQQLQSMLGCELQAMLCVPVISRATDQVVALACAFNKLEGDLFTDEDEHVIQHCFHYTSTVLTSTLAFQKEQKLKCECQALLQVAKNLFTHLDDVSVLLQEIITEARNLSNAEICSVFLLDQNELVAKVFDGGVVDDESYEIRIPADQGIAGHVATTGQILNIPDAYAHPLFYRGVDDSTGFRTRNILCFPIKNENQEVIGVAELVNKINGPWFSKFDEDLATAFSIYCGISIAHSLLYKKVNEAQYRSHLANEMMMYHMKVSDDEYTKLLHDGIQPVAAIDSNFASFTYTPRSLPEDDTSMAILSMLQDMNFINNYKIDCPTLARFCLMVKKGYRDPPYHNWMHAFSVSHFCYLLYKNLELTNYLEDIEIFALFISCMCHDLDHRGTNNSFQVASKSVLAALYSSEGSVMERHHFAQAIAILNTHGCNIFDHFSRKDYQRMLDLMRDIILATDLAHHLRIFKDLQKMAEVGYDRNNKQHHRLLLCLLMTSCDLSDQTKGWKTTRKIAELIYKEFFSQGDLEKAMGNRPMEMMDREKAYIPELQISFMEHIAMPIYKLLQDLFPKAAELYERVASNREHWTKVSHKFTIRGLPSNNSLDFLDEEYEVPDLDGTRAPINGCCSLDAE

With CC1CC(=O)NN=C1c1ccc(N)c([N+](=O)[O-])c1 (stereo not shown) [6-(4-Amino-3-nitro-phenyl)-5-methyl-4,5-dihydro-2H-pyridazin-3-one] the “Inhibition of human platelet PDE5” value (human platelet PDE5; [1]) was “No significant inhibition”, the “Inhibition of human platelet PDE5” value (human platelet PDE5; [2]) was “little inhibition” and the “Inhibition of recombinant human PDE2” value (recombinant human PDE2; [1]) was “No significant inhibition”. The “Inhibition of recombinant human PDE2” value (recombinant human PDE2; [2]) was “little inhibition”.
